Measured values reported in BindingDB's records for doi:10.3109/14756366.2011.651465 (Dumlupinar University, 2013).

Tests used:
Carbonic anhydrase 1 = Carbonic anhydrase 1 (Homo sapiens, UniProt P00915); test: CA Activity Assay; settings: pH 7.4; 25 °C
Method: (§1) CA activity was assayed in inhibition studies by following the change in absorbance at 348 nm of 4-nitrophenylacetate (NPA) to 4-nitrophenylate ion over a period of 3 min at 25°C using a spectrophotometer according to the method described by Verpoorte et al. [Verpoorte et al., J. Biol. Chem., 242:4221-4229] The enzymatic reaction, in a total volume of 1 mL, contained 50 mM Tris-SO4 buffer (pH = 7.4), 3 mM 4-nitrophenylacetate and enzyme solution. A reference measurement was done by using the same cuvette without enzyme solution. The inhibitory effects of some synthesized sulfonamide derivatives on CA enzyme activity purified from human erythrocyte were tested on three samples at each concentration used.

Carbonic anhydrase 2 = Carbonic anhydrase 2 (Homo sapiens, UniProt P00918); test: CA Activity Assay; settings: pH 7.4; 25 °C
Method: as §1

Sequence of Carbonic anhydrase 1 (P00915 whole entry): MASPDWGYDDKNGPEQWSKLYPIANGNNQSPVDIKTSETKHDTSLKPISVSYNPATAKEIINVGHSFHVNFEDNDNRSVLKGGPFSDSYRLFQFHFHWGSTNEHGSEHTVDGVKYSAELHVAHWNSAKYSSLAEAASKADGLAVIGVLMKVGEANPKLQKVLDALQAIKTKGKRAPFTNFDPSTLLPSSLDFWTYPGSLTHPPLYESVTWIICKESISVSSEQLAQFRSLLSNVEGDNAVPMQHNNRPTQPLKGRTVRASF

Structure (SMILES) | Ki (Carbonic anhydrase 1) | Ki (Carbonic anhydrase 2)
Nc1cccc(-n2nc(C(=O)Nc3ccc(S(N)(=O)=O)cc3)c(C(=O)c3ccccc3)c2-c2ccccc2)c1 [1-(3-aminophenyl)-4-benzoyl-5-phenyl-N-(4-sulfamoylphenyl)-1H-pyrazole-3-carboxamide (3)] | 108 nM | 55 nM
NS(=O)(=O)c1ccc(NC(=O)c2nn(-c3cccc([N+](=O)[O-])c3)c(-c3ccccc3)c2C(=O)c2ccccc2)cc1 [4-benzoyl-1-(3-nitrophenyl)-5-phenyl-N-(4-sulfamoylphenyl)-1H-pyrazole-3-carboxamide (2)] | 215 nM | 337 nM
[N-]=[N+]=Nc1cccc(-n2nc(C(=O)Nc3ccc(S(N)(=O)=O)cc3)c(C(=O)c3ccccc3)c2-c2ccccc2)c1 [1-(3-azidophenyl)-4-benzoyl-5-phenyl-N-(4-sulfamoylphenyl)-1H-pyrazole-3-carboxamide (9)] | 129 nM | 64 nM
NS(=O)(=O)c1ccc(NC(=O)c2nn(-c3cccc(NN=C(C(=O)c4ccccc4)C(=O)c4ccccc4)c3)c(-c3ccccc3)c2C(=O)c2ccccc2)cc1 [4-benzoyl-1-(3-(2-(1,3-dioxo-1,3-diphenylpropan-2-ylidene)hydrazinyl)phenyl)-5-phenyl-N-(4-sulfamoylphenyl)-1H-pyrazole-3-carboxamide (6)] | 4100 nM | 1940 nM
CC(=O)C(=NNc1cccc(-n2nc(C(=O)Nc3ccc(S(N)(=O)=O)cc3)c(C(=O)c3ccccc3)c2-c2ccccc2)c1)C(C)=O [4-benzoyl-1-(3-((2-hydroxy-4-oxopent-2-en-3-yl)diazenyl)phenyl)-5-phenyl-N-(4-sulfamoylphenyl)-1H-pyrazole-3-carboxamide (5)] | 160 nM | 595 nM
CCOC(=O)/C(=N/Nc1cccc(-n2nc(C(=O)Nc3ccc(S(N)(=O)=O)cc3)c(C(=O)c3ccccc3)c2-c2ccccc2)c1)C(=O)c1ccccc1 [Ethyl-2-(2-(3-(4-benzoyl-5-phenyl-3-(4-sulfamoylphenylcarbamoyl)-1H-pyrazol-1-(phenyl)hydrazono)-3-oxo-3-phenylpropanoate (8)] | 2900 nM | 8240 nM
CC(=O)/C(=N\Nc1cccc(-n2nc(C(=O)Nc3ccc(S(N)(=O)=O)cc3)c(C(=O)c3ccccc3)c2-c2ccccc2)c1)C(=O)c1ccccc1 [4-benzoyl-1-(3-((3-hydroxy-1-oxo-1-phenylbut-2-en-2-yl)diazenyl)phenyl)-5-phenyl-N-(4-sulfamoylphenyl)-1Hpyrazole-3-carboxamide (7)] | 521 nM | 166 nM
